# Laboratory results from US6472390B1, “Use of therapeutic dosages for nitric oxide donors which do not significantly lower blood pressure or pulmonary artery pressure” (Duke University, priority 2001, dated 2002).
# Columns and labels:
# [1] = regardless of dosage; cited from earlier work
# [2] = tested on: patient with recurrent episodes of acute vasospastic angina; experiment: patient with acute vasospastic angina (Example VII); assay type: in vivo, human
# Description: A person who complains of recurrent episodes of acute vasospastic angina is treated with S-nitrosoglutathione (GSNO) at 1-1,000 μg orally 4×/day. Blood pressure is unchanged and acute symptoms resolve. In addition, the frequency of vasospastic chest pain decreases over the following three weeks.
# [3] = tested on: patient with uncontrolled hypertension; experiment: patient with uncontrolled hypertension (Example XVI); assay type: in vivo, human; details: for exacerbation on maintenance: maintained on GSNO together with ethyl nitrite; for blood pressure (acute): oral GSNO 1 to 10 micrograms QID together with ethyl nitrite 0.025% (1 cc) 3×/day; for blood pressure (acute) / blood pressure: baseline 200/110; for blood pressure: over the following two weeks, GSNO together with ethyl nitrite
# Description: A person with uncontrolled hypertension of 200/90 mm of mercury on a complex medical regimen including angiotension converting enzyme inhibitor, an alpha blocker, and beta blocker has a blood pressure of 200/110. They are begun on oral GSNO at 1 to 10 micrograms QID and ethyl nitrite 0.025% (1 cc) 3×/day. […] However, over the following two weeks the blood pressure falls to 170/100 consistent with better management of their disease.
# [4] = tested on: patient with severe three vessel disease; experiment: patient with severe three vessel coronary disease (Example XVII); assay type: in vivo, human; details: oral, titrated so that resting systolic blood pressure does not change; three years
# Description: They do well with no symptoms of coronary disease over the following three years.
# [5] = tested on: platelets; details: doses that do not acutely drop blood pressure; cited from earlier work
# [6] = tested on: mouse aorta rings; experiment: vascular ring bioassay on mouse aorta rings (Example I)
# Description: The assay involves a chamber of solution into which mouse aorta ring attached to a force transducer is placed where the solution is bubbled with 21% O2/5% CO2/balance N2. The force transducer moves a pen in response to contraction and relaxation effects to give a tracing of forces (tension) in the Y-direction versus time in the X-direction on a chart. Various agents as described later are applied to the aorta rings to give to give contraction and relaxation effects. Tracings of force (tension) in the Y-direction versus time in the X-direction are obtained with upward direction indicating contraction and downward direction indicating relaxation. […] On FIG. 1, “E” means application of phenylephrine, a constricting agent, and the concentrations thereof at particular times are denoted; “ACh” means application of acetyIcholine (which causes a relaxation effect in response to endogenous nitric oxide) and the concentration thereof at particular times are denoted; and “GSNO” means application of S-nitrosoglutathione, an NO donor, and the concentrations thereof at particular times are denoted. […] As further shown in FIG. 1, flushing is then carried out three times then and one more time; the flushing is carried out (with Krebs-Henseleit solution described hereinafter in Example III) and removes the acetylcholine. As further shown in FIG. 1, phenylephrine is then applied starting at a concentration of 10^−7 molar increasing to a concentration of 10^−5.5 molar. […] As further shown in FIG. 1, flushing is then carried out three times (with Krebs-Henseleit solution); and then one more time with the same flushing agent; this flushing removes the S-nitrosoglutathione.
# [7] = tested on: patient with congestive heart failure, hypotension and angina; experiment: patient with congestive heart failure, hypotension and angina, intraarterial infusion (Example XIX); assay type: in vivo, human; details: 200 nmol/kg via the brachial artery over 3 minutes
# Description: A person with congestive heart failure develops hypotension and angina. S-nitrosoglutathione (200 nmol/kg) is infused via the brachial artery over 3 minutes. The angina resolves. The systolic blood pressure rises from 85 mm Hg to 100 mm Hg.
# [8] = tested on: patient with claudication and a leg ulcer; experiment: patient with claudication and leg ulcer (Example XV); assay type: in vivo, human
# Description: A person with risk factors of hypertension, diabetes, and hypercholestolemia and a strong family history of atherosclerosis presents with claudication and a leg ulcer. They are begun on an infusion of (SIN-1) 0.3 μm/kg per hour for a total of 1 mg with no change in blood pressure. Symptoms of rest pain resolve. They are then begun on oral S-nitrosoglutathione 1-10 μg 3×/day with improvement of duration of exercise and no recurrence of rest pain.
# [9] = tested on: patient with primary pulmonary hypertension class II; experiment: patient with primary pulmonary hypertension (Example VIII); assay type: in vivo, human
# Description: […] They are given 10 mM GSNO in 1 cc saline nebulized 3×/day. Symptoms of shortness of breath resolve but pulmonary artery pressure and systemic pressure are unchanged with acute administration. After four months of therapy, pulmonary artery pressure has dropped by 5 mm of mercury and the patient's symptoms have improved. The patient is subsequently given oral GSNO at 10 μg TID and doses are empirically changed to prevent any significant change in blood pressure.
# [10] = tested on: patient with a transient ischemic attack; experiment: patient with transient ischemic attack (Example XIII); assay type: in vivo, human
# Description: A person presents with a transient ischemic attack evidenced by confusion and headache. Carotid dopplers show 98% new occlusion of the right carotid artery. Systolic blood pressure is 180 mm of mercury. They are given an infusion intravenously of S-nitrosocysteinyl glycine 10 μg with resolution of the headache. The systemic blood pressure remains 175 mm of mercury. Symptoms of headache and confusion resolve. The patient is then maintained on oral S-nitrosoglutathione 1-10 μg 3×/day with no recurrence of transient ischemic symptoms.
# [11] = tested on: patient with poorly controlled asthma; experiment: patient with poorly controlled asthma (Example IX); assay type: in vivo, human
# Description: A person with poorly controlled asthma presents with an exacerbation. […] The frequency of asthma exacerbations decline.
# [12] = tested on: artery rings from New Zealand white rabbits; experiment: vascular ring bioassay on rabbit artery rings (Example II); details: NO donor 1 μM
# Description: A vascular ring bioassay was carried out as follows: Artery rings (3 mm) were harvested from New Zealand white rabbits and mounted in 25 ml tissue baths filled with Krebs-Henseleit buffer and bubbled with 21% O2/5% CO2/balance N2. Isometric tension was measured. All rings in the study were suspended with similar baseline levels of tension (˜2 g). Tissue baths were thoroughly rinsed with fresh buffer between interventions. Three runs were carried out. In one run denoted the control, no additive was added. […] In a third run, SIN1 was added to provide a concentration of 1 μM. […] After flushing with solution as described in Example I, phenylephrine was then added in each case to provide a concentration of 1 to 10 μM. The results are shown in FIG. 2 where percent increase in tone is indicated on the Y-axis and additive or absence thereof (control) is indicated on the X-axis.
# [13] = tested on: isolated buffer-perfused lungs (IPL) of rabbits; experiment: isolated buffer-perfused rabbit lung, pulmonary artery pressure (Example III); details: for change in mean pulmonary artery pressure (Ppa) on injection of NO donor: GSNO 50 μM or SIN1 100 μM injected into the recirculating system; for constriction (change in Ppa) by serotonin: serotonin 1 micromolar sixty minutes after GSNO 50 μM or SIN1 100 μM
# [14] = tested on: patient receiving erythropoietin who develops chest pain; experiment: patient on erythropoietin with chest pain, thiol (Example XXI); assay type: in vivo, human
# Description: A person receiving erythropoietin to raise red blood count depleted by renal failure, develops chest pain (caused by increased concentration of red blood cells).
# [15] = tested on: patient receiving erythropoietin who develops chest pain; experiment: patient on erythropoietin with chest pain, NO donor infusion (Example XX); assay type: in vivo, human; details: infusion 1-10 nmolkg/min
# Description: A person receiving erythropoietin to raise red blood count depleted because of treatment for cancer or renal failure, develops chest pain (caused by increased concentration of red blood cells).
# [16] = tested on: dogs; experiment: systemic infusion of NO donor into dogs, systemic blood pressure (Example VI); assay type: in vivo, dog; details: without and with ischemia, S-nitrosocysteine 3 nmol/kg or S-nitrosoalbumin 10 nmol/kg infused systemically
# Description: In another case, S-nitrosocysteine (3 nmol/kg) or S-nitrosoalbumin (10 nmol/kg) is infused systemically into dogs. […] The response to S-nitrosoalbimim infusion is no different. The infusions of NO donors result in reaction with membrane receptors in red blood cells.
# [17] = tested on: patient with symptoms of depression; experiment: patient with depression (Example XIV); assay type: in vivo, human
# Description: A person presents with symptoms of depression. They are begun on oral molsidomine (SIN-1) 10 μg per kg dose-adjusted so that blood pressure is unchanged. Over the following three weeks the symptoms of depression resolve and the patient is maintained on this dose with no recurrence.
# [18] = tested on: infant with pyloric stenosis; experiment: infant with pyloric stenosis (Example XII); assay type: in vivo, human; details: 2 cc of 0.125% in ethanol 3×/day
# Description: An infant with pyloric stenosis is given 2 cc of 0.125% ethyl nitrite in ethanol 3×/day.
# Symptoms of intestinal pain resolve.
# [19] = tested on: patient with recurrent rectal spasm; experiment: patient with recurrent rectal spasm (Example X); assay type: in vivo, human
# Description: A person with recurrent rectal spasm is given oral ethyl nitrite 0.125% in ethanol (1 cc) 3×/day. […] They then continued on this therapy with a decrease in incidence of rectal pain.
# [20] = tested on: patient with esophageal spasm; experiment: patient with esophageal spasm (Example XI); assay type: in vivo, human
# Description: A alcoholic with esophageal spasm is given 2 cc of 0.125% ethyl nitrite in ethanol 3×/day.
# [21] = tested on: patient with anxiety and stress; experiment: patient with anxiety and stress (Example XVIII); assay type: in vivo, human; details: ½ to 1 inch patch 3×/day titrated to avoid change in blood pressure or headache
# [22] = tested on: rats; experiment: infusion into rats, mean arterial blood pressure and heart rate (Example IV); assay type: in vivo, rat
# Description: Rats (n=4) were infused via femoral vein with 200 nmol/kg of S-nitrosothiol (S-nitrosohemoglobin). Mean arterial blood pressure (MAP) and heart rate (HR) were measured.
# In another case, rats (n=4) were infused via femoral artery with 200 nmol/kg of S-nitrosothiol (S-nitrosohemoglobin). Mean arterial blood pressure (MAP) and heart rate (HR) were measured.
# [23] = infusion 0.3 μm/kg per hour for a total of 1 mg
# [24] = oral 0.125% in ethanol (1 cc) 3×/day
# [25] = 200 nmol/kg via femoral artery, rats
# [26] = 200 nmol/kg via femoral vein, rats
compound,measurement,setting,value
"O=C(Oc1cccc(CO[N+](=O)[O-])c1)c1ccccc1O [B-NOD, 2-hydroxybenzoic acid 3-nitrooxymethylphenyl ester]",acute lowering of mean arterial blood pressure,[1],≤ 10%
"N[C@@H](CCC(=O)N[C@@H](CSN=O)C(=O)NCC(=O)O)C(=O)O [GSNO, S-nitrosoglutathione]",acute symptoms of vasospastic angina,"[2]; 1-1,000 μg orally 4×/day",resolve
same,blood pressure,"[2]; 1-1,000 μg orally 4×/day",unchanged
same,frequency of vasospastic chest pain,[2]; over the following three weeks,decreases
same,exacerbation on maintenance,[3],no further exacerbation
same,blood pressure (acute),[3],does not change
same,blood pressure,[3],170/100
same,symptoms of coronary disease,[4],no symptoms
same,thromboembolic events,[5],inhibit other thromboembolic events
same,effect on tension of phenylephrine-contracted ring,[6]; S-nitrosoglutathione 1 nanomolar increasing to 10 micromolar,relaxing (contraction-attenuating) effect
same,contracting response to phenylephrine after pretreatment and flushing,[6]; phenylephrine 10^-7 to 10^-5 molar after S-nitrosoglutathione removed by flushing,does not cause a contracting response
same,angina,[7],resolves
same,systolic blood pressure after infusion,[7]; rises from 85 mm Hg,100 mm Hg
same,duration of exercise,[8]; oral 1-10 μg 3×/day,improvement
same,recurrence of rest pain,[8]; oral 1-10 μg 3×/day,no recurrence
same,symptoms of shortness of breath,[9]; 10 mM in 1 cc saline nebulized 3×/day,resolve
same,pulmonary artery pressure and systemic pressure,"[9]; acute administration, 10 mM in 1 cc saline nebulized",unchanged
same,drop of pulmonary artery pressure,[9]; after four months of therapy,5 mm of mercury
same,patient's symptoms,[9]; after four months of therapy,improved
same,recurrence of transient ischemic symptoms,[10]; oral 1-10 μg 3×/day maintenance,no recurrence
same,frequency of asthma exacerbations,"[11]; oral 10 μg Q 6 hours, continued",decline
same,effect on resting tone (relaxing effect),[12],no effect on resting tone
same,change in mean pulmonary artery pressure (Ppa) on injection of NO donor,[13],did not cause change in Ppa
same,constriction (change in Ppa) by serotonin,[13],prevented constriction
CC(=O)N[C@@H](CS)C(=O)O [N-acetylcysteine],frequency of angina,"[14]; 600 ng, PO, TID",decreases
same,blood pressure,"[14]; 600 ng, PO, TID, over three weeks",drops
same,blood pressure,[14]; infusion 50 ng/kg,without a change
same,chest pain,[14]; infusion 50 ng/kg,alleviating their chest pain
CCOC(=O)[C@@H](N)CSN=O [S-nitrosocysteine ethyl ester],airway tone,"[11]; inhaled 1-1,000 μg nebulized in 10 cc",does not significantly improve
same,acute episode of asthma,[11]; over the following three days,brought under control
same,blood pressure,[15],without a change
same,chest pain,[15],alleviating chest pain
N[C@@H](CSN=O)C(=O)O [S-nitrosocysteine],systemic blood pressure,[16],no effect
N[C@@H](CSN=O)C(=O)NCC(=O)O [S-nitrosocysteinyl glycine],systemic blood pressure,"[10]; after intravenous infusion 10 μg, systolic 180 mm of mercury before",175 mm of mercury
same,symptoms of headache and confusion,[10]; intravenous infusion 10 μg,resolve
"CCOC(=O)[N-]c1cn(N2CCOCC2)n[o+]1 [SIN1, molsidomine]",blood pressure,[8]; [23],no change
same,symptoms of rest pain,[8]; [23],resolve
same,effect on resting tone (relaxing effect),[12],did not cause a relaxing effect
same,change in mean pulmonary artery pressure (Ppa) on injection of NO donor,[13],did not cause change in Ppa
same,constriction (change in Ppa) by serotonin,[13],prevented constriction
same,recurrence of depression,[17]; maintained on this dose,no recurrence
same,symptoms of depression,"[17]; oral 10 μg per kg dose-adjusted so that blood pressure is unchanged, over three weeks",resolve
CCON=O [ethyl nitrite],exacerbation on maintenance,[3],no further exacerbation
same,blood pressure (acute),[3],does not change
same,blood pressure,[3],170/100
same,symptoms of intestinal pain,[18],resolve
same,incidence of rectal pain,[19]; continued therapy,decrease
same,blood pressure,[19]; [24],does not change
same,symptoms of rectal pain,[19]; [24],resolve
same,symptoms of esophageal pain,[20]; 2 cc of 0.125% in ethanol 3×/day,resolve
same,recurrence of symptoms,[20]; same maintenance dose,do not recur
O=[N+]([O-])OCC(CO[N+](=O)[O-])O[N+](=O)[O-] [nitroglycerin],symptoms of anxiety and stress,[21],alleviated in 4 days
CNC[C@H](O)c1cccc(O)c1 [phenylephrine],effect on tension of ring,[6]; phenylephrine 10^-8 molar increasing to 10^-5.5 molar,contracting effect
S-nitrosohemoglobin,heart rate,[22]; [25],increased
same,mean arterial blood pressure,[22]; [25],increased
same,heart rate,[22]; [26],no effect
same,resting blood pressure (MAP),[22]; [26],no effect
same,blood pressure,[22]; higher doses of S-nitrosothiol,fall
